18 molecules from article PMC11536976 (RSC Advances, 2024) can be followed below.

What is called IC50 is the point on the concentration scale where inhibition reaches its midpoint.

Holding throughout (format): cell-based, human
The subject of one series is SW480 cells. In words: MTT cytotoxicity assay, SW480. The settings on record: for IC50: Homo sapiens, SW480, 72 h, read-out: IC50 SW480; for SI SW480: selectivity index = IC50 in MRC-5 / IC50 in SW480. In general terms: Tetrazolium assays rely on reduction of a dye to a coloured formazan, in cell work by metabolically active cells.
The subject of series [1] is A549 cells. As to the kind of experiment: MTT cytotoxicity assay, A549. The settings on record: for IC50: read-out: IC50 A549; for SI A549: selectivity index = IC50 in MRC-5 / IC50 in A549.
The test system of series [2] is A549 cells. As to the kind of experiment: Apoptosis assay, Annexin V-FITC/PI flow cytometry. The settings on record: 24 h; for early apoptotic cells (Q3, annexin+/PI-): control 1.8%; for late apoptotic cells (Q2, annexin+/PI+): control 2.4%. (Flow cytometry measures light scatter and fluorescence of single cells or particles in a stream.)
Series [3] has as its system A549 cells. As to the kind of experiment: Cell cycle analysis by flow cytometry. The settings on record: 24 h; for cell population in S phase: control 18.89%; for cell population in G0/G1 phase: control 67.87%.

Read-outs that look alike come from different tables or passages of the source.

With `COc1cc(-c2nc3ccc(C(=O)NCc4ccccc4)cc3[nH]2)cc(OC)c1OC` [Compound 5c, N-Benzyl-2-(3,4,5-trimethoxyphenyl)-1H-benzo[d]imidazole-6-carboxamide], the IC50 stood at 34.8 ± 5.37 µM with SW480 cells and 16.3 ± 5.73 µM in the series with A549 cells [1] (Homo sapiens, A549, 72 h).
`COc1cc(-c2nc3ccc(C(=O)Nc4ccccc4C)cc3[nH]2)cc(OC)c1OC` [Compound 5l, N-(o-Tolyl)-2-(3,4,5-trimethoxyphenyl)-1H-benzo[d]imidazole-6-carboxamide]: the half-maximal inhibitory concentration (IC50) in the series with SW480 cells was 9.31 ± 0.21 µM; in the series on A549 cells [1] (Homo sapiens, A549, 72 h) it was 0.92 ± 0.39 µM.
As for `COc1cc(-c2nc3ccc(C(=O)Nc4ccc(C)cc4)cc3[nH]2)cc(OC)c1OC` [Compound 5m, N-(p-Tolyl)-2-(3,4,5-trimethoxyphenyl)-1H-benzo[d]imidazole-6-carboxamide], in the series on SW480 cells, the IC50 was 13 ± 1.2 µM and the “SI SW480” value was found to be 1.2. Besides, the IC50 with A549 cells [1] (Homo sapiens, A549, 72 h) came to 0.52 ± 0.12 µM. Besides, the “SI A549” value with A549 cells [1] is 28.9.
On to `COc1cc(-c2nc3ccc(C(=O)NCC(C)C)cc3[nH]2)cc(OC)c1OC` [Compound 5b, N-Isobutyl-2-(3,4,5-trimethoxyphenyl)-1H-benzo[d]imidazole-6-carboxamide], for which the IC50 with SW480 cells came out at 18.8 ± 3.25 µM; in the series on A549 cells [1] (Homo sapiens, A549, 72 h), 0.82 ± 0.2 µM.
`COc1cc(-c2nc3ccc(C(=O)Nc4cccc(Cl)c4)cc3[nH]2)cc(OC)c1OC` [Compound 5h, N-(3-Chlorophenyl)-2-(3,4,5-trimethoxyphenyl)-1H-benzo[d]imidazole-6-carboxamide]: the concentration for half-maximal inhibition (IC50) in the series on SW480 cells came to 52.7 ± 2.96 µM; in the series with A549 cells [1] (Homo sapiens, A549, 72 h), 27.5 ± 6.78 µM.
Turning to `COc1cc(-c2nc3ccc(C(=O)Nc4ccccc4Cl)cc3[nH]2)cc(OC)c1OC` [Compound 5g, N-(2-Chlorophenyl)-2-(3,4,5-trimethoxyphenyl)-1H-benzo[d]imidazole-6-carboxamide], the IC50 is 49.1 ± 2.84 µM with SW480 cells and 17.3 ± 3.5 µM in the series with A549 cells [1] (Homo sapiens, A549, 72 h).
As for `COc1cc(-c2nc3ccc(C(=O)Nc4ccccc4F)cc3[nH]2)cc(OC)c1OC` [Compound 5f, N-(2-Fluorophenyl)-2-(3,4,5-trimethoxyphenyl)-1H-benzo[d]imidazole-6-carboxamide], in the series on SW480 cells, the IC50 worked out at 6.38 ± 1.95 µM and the “SI SW480” value was 1.7. Moreover, in the series with A549 cells [1] (Homo sapiens, A549, 72 h), the concentration for half-maximal inhibition (IC50) was 0.67 ± 0.15 µM. Moreover, the “SI A549” value with A549 cells [1] is given as 15.8.
For `COc1cc([C@@H]2c3cc4c(cc3[C@@H](O[C@@H]3O[C@@H]5CO[C@@H](C)O[C@H]5[C@H](O)[C@H]3O)[C@H]3COC(=O)[C@H]23)OCO4)cc(OC)c1O` [Etoposide, reference compound], the concentration for half-maximal inhibition (IC50) in the series on SW480 cells stood at 16.6 ± 2.3 µM; in the series with A549 cells [1] (Homo sapiens, A549, 72 h), 9.44 ± 1.98 µM.
For `COc1cc(-c2nc3ccc(C(=O)Nc4ccc(C)cc4C)cc3[nH]2)cc(OC)c1OC` [Compound 5n, N-(2,4-Dimethylphenyl)-2-(3,4,5-trimethoxyphenyl)-1H-benzo[d]imidazole-6-carboxamide], the IC50 with SW480 cells stood at 14.8 ± 1.63 µM; in the series with A549 cells [1] (Homo sapiens, A549, 72 h), 1.38 ± 0.23 µM.
For `COc1cc(-c2nc3ccc(C(=O)NCCc4ccccc4)cc3[nH]2)cc(OC)c1OC` [Compound 5d, N-Phenethyl-2-(3,4,5-trimethoxyphenyl)-1H-benzo[d]imidazole-6-carboxamide], the IC50 in the series on SW480 cells came out at 18.2 ± 2.69 µM; in the series with A549 cells [1] (Homo sapiens, A549, 72 h) it was 0.66 ± 0.13 µM.
The like results for `COc1cc(-c2nc3ccc(C(=O)Nc4ccc([N+](=O)[O-])cc4Cl)cc3[nH]2)cc(OC)c1OC` [Compound 5i, N-(2-Chloro-4-nitrophenyl)-2-(3,4,5-trimethoxyphenyl)-1H-benzo[d]imidazole-6-carboxamide] were, in that order, 20.2 ± 7.21 µM and 5.78 ± 4.85 µM.
Regarding `COc1cc(-c2nc3ccc(C(=O)Nc4ccccc4)cc3[nH]2)cc(OC)c1OC` [Compound 5e, N-Phenyl-2-(3,4,5-trimethoxyphenyl)-1H-benzo[d]imidazole-6-carboxamide], in the series on SW480 cells, the IC50 was 5.45 ± 0.67 µM and the “SI SW480” value worked out at 2.1. In addition, the IC50 with A549 cells [1] (Homo sapiens, A549, 72 h) was determined as 0.23 ± 0.05 µM. In addition, the “SI A549” value in the series on A549 cells [1] is given as 50.2.
For `COc1cc(-c2nc3ccc(C(=O)Nc4cccc([N+](=O)[O-])c4)cc3[nH]2)cc(OC)c1OC` [Compound 5k, N-(3-Nitrophenyl)-2-(3,4,5-trimethoxyphenyl)-1H-benzo[d]imidazole-6-carboxamide], the IC50 in the series on SW480 cells came out at 16.8 ± 1.41 µM; with A549 cells [1] (Homo sapiens, A549, 72 h), 14.4 ± 3.53 µM.
The corresponding values for `COc1cc(-c2nc3ccc(C(=O)Nc4ccc(Br)cc4)cc3[nH]2)cc(OC)c1OC` [Compound 5j, N-(4-Bromophenyl)-2-(3,4,5-trimethoxyphenyl)-1H-benzo[d]imidazole-6-carboxamide] are 15.2 ± 2.58 µM and 13.1 ± 1.27 µM.
With `CCCCNC(=O)c1ccc2nc(-c3cc(OC)c(OC)c(OC)c3)[nH]c2c1` [Compound 5a, N-Butyl-2-(3,4,5-trimethoxyphenyl)-1H-benzo[d]imidazole-6-carboxamide], the concentration for half-maximal inhibition (IC50) in the series with SW480 cells came out at 46.1 ± 9.23 µM; in the series on A549 cells [1] (Homo sapiens, A549, 72 h) it was 24.8 ± 5.21 µM.
On to `N.N.[Cl][Pt][Cl]` [Cisplatin, reference compound], for which the half-inhibitory concentration (IC50) in the series on A549 cells [1] (MTT, 72 h, mean ± SD of 3–4 independent replicates) stood at 5.77 ± 1.6 µM.
`COc1ccc(NC(=O)c2ccc3nc(-c4cc(OC)c(OC)c(OC)c4)[nH]c3c2)c(OC)c1` [Compound 5o, N-(2,4-Dimethoxyphenyl)-2-(3,4,5-trimethoxyphenyl)-1H-benzo[d]imidazole-6-carboxamide]: in the series with A549 cells [2] (A549, 0.15 μM), the “total apoptosis rate (Q2 + Q3)” value turned out to be 15.2%; the “early apoptotic cells (Q3, annexin+/PI-)” value was 9.8%; the “late apoptotic cells (Q2, annexin+/PI+)” value amounted to 5.4%. Moreover, in the series with A549 cells [2] (A549, 0.30 μM), the “total apoptosis rate (Q2 + Q3)” value is listed as 74.3%; the “early apoptotic cells (Q3, annexin+/PI-)” value came to 34.4%; the “late apoptotic cells (Q2, annexin+/PI+)” value amounted to 39.9%. In addition, in the series with SW480 cells, the IC50 came out at 3.68 ± 0.59 µM and the “SI SW480” value amounted to 32.4. For the same molecule, in the series on SW480 cells (SW480 cells), the “fold stronger cytotoxic activity than cisplatin” value stood at 4.1 fold and the “fold stronger cytotoxic activity than etoposide” value is 4.5 fold. Besides, in the series on A549 cells [3] (A549, 0.15 μM), the “cell population in S phase” value was 43.58% and the “cell population in G0/G1 phase” value is reported as 46.44%. For the same molecule, in the series with A549 cells [3] (A549, 0.30 μM, control 13.24%), the “cell population in G2/M phase” value is 4.53%. For the same molecule, in the series with A549 cells [3] (A549, 0.30 μM), the “cell population in S phase” value worked out at 60.31% and the “cell population in G0/G1 phase” value is reported as 35.16%. In the series on A549 cells [1] (A549 cells), the “fold higher cytotoxic activity than cisplatin” value is 38.5 fold, the “fold higher cytotoxic activity than doxorubicin” value was determined as 3.1 fold and the “fold higher cytotoxic activity than etoposide” value is on record as 62.9 fold. Moreover, the half-maximal inhibitory concentration (IC50) with A549 cells [1] (Homo sapiens, A549, 72 h) came to 0.15 ± 0.01 µM. In addition, in the series on A549 cells [1], the “SI A549” value stood at 794.6.
As for `COc1cccc2c1C(=O)c1c(O)c3c(c(O)c1C2=O)C[C@@](O)(C(=O)CO)C[C@@H]3O[C@H]1C[C@H](N)[C@H](O)[C@H](C)O1` [Doxorubicin, reference compound], in the series with SW480 cells, the IC50 is 0.59 ± 0.07 µM and the “SI SW480” value was determined as 0.7. In addition, the IC50 in the series on A549 cells [1] (Homo sapiens, A549, 72 h) stood at 0.46 ± 0.02 µM. Moreover, in the series with A549 cells [1], the “SI A549” value is reported as 0.8.
